# “Also recorded” adds a separate entry of the source.
# What was measured:
# platelets = conditions: literature, cited from earlier work
# GPIIb/IIIa = assay: Flow cytometry of activated GPIIb/IIIa on platelets after collagen stimulation; format: cell-based, human; conditions: 60 μM
# Description: (§1) In order to analyze receptor expression on the surface of individual platelets and to minimize platelet activation caused by sample preparation procedures, no stirring or vortexing steps were used. The abundance of activated GPIIb/IIIa and P-selectin on the surface of platelets in the presence and absence of inhibitors was measured by flow cytometry. Platelet samples were first activated with agonists either collagen or ADP. When platelet aggregation reached 50% maximal light transmission the reaction was terminated by 10-fold dilution with physiologic saline. Resting platelets were used as control. […] The activated GPIIb/IIIa platelet receptors were measured using PAC-1 monoclonal antibody at the same concentration as above. […] Following incubation, samples were diluted in FACS Flow fluid and analyzed within 5 min using a BD FACSArray (BD Biosciences, Oxford, UK). […] The instrument was set up to measure the size (forward scatter), granularity (side scatter) and cell fluorescence. […] Antibody binding was measured by analyzing individual platelets for fluorescence. The mean fluorescence intensity was determined after correction for cell autofluorescence. For each sample, the fluorescence was analyzed using a logarithmic scale. Fluorescence histograms were obtained for 10,000 individual events. […]
# [1] = test system: platelet rich plasma (PRP); assay: Collagen-induced platelet aggregation in platelet rich plasma (light aggregometry); format: cell-based, human; conditions: 200 μM in PRP, collagen 5 μg/ml
# Description: (§2) PRP and WP (2.5×10^8 platelets ml^−1) were prepared from blood. Briefly 36 ml whole blood was collected into 4 ml of 3.15% sodium citrate; this was centrifuged at 250 ¥g for 20 min (with gentle acceleration and deceleration). At this point PRP, which had separated from white blood cells and red blood cells, was gently removed. When WP were required this PRP was centrifuged at 700 g for 10 min (with gentle acceleration and deceleration) in the presence of prostacyclin. The platelet-poor plasma (PPP) was removed and the platelet pellet was washed three times with Tyrode's buffer, before being re-suspended in Tyrode's buffer to a concentration of 2.5 ¥108 platelets/ml.
# (§3) Platelet aggregation was measured by light aggregometry. […] Aggregation was initiated by the addition of agonists, and monitored by Aggro-Link software for at least 6 min.
# (§4) To study the aggregatory potency of ADP, the concentration-response (0.3-10 μM) curves were generated. Collagen at different concentrations (2-5 μg/ml) was also used to induce platelet aggregation. Submaximal concentrations of agonists, i.e. the concentrations that gave approximately 95% of the maximal aggregation were used to study the effects of inhibitors of aggregation. Aspirin and aspirin prodrugs was incubated for various intervals prior to the addition of aggregating agents.
# (§5) Eserine (in DMSO, 10 μM, giving a final concentration≦0.25% DMSO, which pilot studies had determined not to affect platelet aggregation) was preincubated with PRP or WP for 5 min in the aggregometer with stirring at 900 r.p.m. before the addition of test compounds (ST0701-05), which were incubated in PRP or WP for a further 10 min prior to the addition of an agonist (10 μM ADP or 5 μg/ml Collagen) to induce platelet aggregation.
# [2] = test system: platelet rich plasma (PRP); assay: ADP-induced platelet aggregation in PRP; format: cell-based, human
# Description: as §2, §3, §4, §5
# 1H-[1,2,4]Oxadiazolo[4,3-a]quinoxalin-1-one (ODQ, dissolved in 100% DMSO, used at a final concentration of 10 μM, which gave a final concentration not more than 0.25% DMSO) was preincubated with PRP or WP for 5 min in the aggregometer with stirring at 900 r.p.m. before the addition of test compounds (ST0701-05), which were incubated in PRP or WP for a further 10 min prior to the addition of an agonist (10 μM ADP or 5 μg/ml collagen) to induce platelet aggregation.
# Eserine (10 μM) was incubated with PRP for 5 min in the aggregometer with stirring at 900 r.p.m. before the addition of test compound ST0702 salicylate (500 μM), which was incubated in PRP for a further 10 min prior to the addition of the agonist ADP (10 μM) to induce platelet aggregation.
# P-selectin [3] = assay: Flow cytometry of platelet P-selectin during TCIPA induced by 59M cells; format: cell-based, human; conditions: 300 μM
# washed platelets (WP) = assay: Collagen-induced platelet aggregation in washed platelets (light aggregometry); format: cell-based, human; parameters: IC50: unit of the concentration uncertain
# Description: as §2, §3, §4
# To study the involvement of plasma BuChE in the activation of ST0701, purified BuChE (3 U/ml) was incubated with WP for 5 min in the aggregometer with stirring at 900 r.p.m. before the addition of the test compounds ST0701 which was incubated with the WP for a further 10 min, prior to the addition of collagen (5 ug/ml).
# as §5
# Phenylmethylsulphonylfluoride (PMSF) 20, 50 and 100 μM dissolved in EtOH (<0.2% EtOH, which pilot studies had determined not to affect platelet aggregation) was preincubated in WP in the aggregometer for 5 min with stirring at 900 r.p.m. before the addition of test compound ST0702 to the WP, which was further incubated for 10 min prior to the addition of collagen (2 μg/ml) to induce platelet aggregation.
# 59M cells [4] = assay: Tumour cell-induced platelet aggregation (TCIPA), static conditions, 59M; format: cell-based, human; conditions: static, WP, 300 and 500 μM, 59M 1×10^3/ml; listed as ISAS
# Description: ISAS meanwhile is hydrolysed to aspirin and salicylic acid. […] The structure of platelet-tumor cell aggregates was studied using phase-contrast microscopy (Alonso-Escolano et al., 2004; Jurasz et al., 2001). […] Aliquots of each sample were then taken for phase-contrast microscopy examination using an Olympus CKX41 microscope (Olympus America Inc., […].). Photomicrographs were captured using a digital camera and MicroFire (Olympus America Inc.) software (Alonso-Escolano et al., 2004; Jurasz et al., 2001).
# P-selectin [5] = assay: Flow cytometry of P-selectin on platelets after collagen stimulation; format: cell-based, human; conditions: 60 μM
# Description: as §1
# 59M cells [6] = assay: Flow-mediated TCIPA using an ultrasound standing wave trap; format: cell-based, human; conditions: 500 μM, 59M cell cluster
# Description: The ultrasound trap had three essential features: a transducer (Ferroperm, Kvistgard, Denmark) in a housing of radial symmetry, an aqueous phase and a reflector that provided optical access from above. The trap was driven with a function generator (Hewlett Packard 33120A, UK). Microscopic observation occurred with a fast, high-resolution XM10 camera (Soft Imaging System, SIS, GmbH) mounted on an Olympus BX51M reflection epi-fluorescence microscope. Images were captured by a standard PC equipped with the Cell-D image acquisition software (Soft Imaging System, SIS, GmbH).
# The experimental procedure was as follows: 59M cells were introduced into the trap, the acoustic field (2.13 MHz, 0.85 MPa) was initiated and cell clusters were allowed to form. Clusters remained levitated in suspension for 10 min. Washed platelets (2.5×10^8/ml) were introduced into the trap at a flow rate of 3 μl/min. Perfusion of washed platelets around the cluster proceeded following initial adhesion of platelets to the periphery of the cluster.
# To study the effect of aspirin and aspirin prodrugs in TCIPA, washed platelets were pre-incubated for 10 min at room temperature with the inhibitors: aspirin, nicotinate, ISAS, ISMNA, ortho and meta (all at a concentration of 500 μM), prior to their introduction into the ultrasound trap. […] The cell cluster-platelet aggregate remained under microscopic observation for further 10 min (the upper time limit established in the current study) under continuous flow conditions. Further experiments were performed with ST0702 salicylate (500 μM).
# washed platelet samples = assay: Collagen-induced platelet aggregation in the TCIPA studies (washed platelets); format: cell-based, human; conditions: collagen 2 μg/ml (FIG. 16B)
# [7] = In-vitro half life of the ST0702 metabolite; format: in vitro ADME
# HT1080 cells = assay: Tumour cell-induced platelet aggregation (TCIPA), static conditions, HT1080; format: cell-based, human; conditions: 500 μM
# Description: Three human tumor cell lines, 59M ovarian adenocarcinoma, Caco-2 colon adenocarcinoma and HT1080 fibrocarcinoma cells, were obtained from the European Cell Culture Collection. Cell lines were cultured as monolayers in 75 ml culture flasks at 37° C. in a humidified atmosphere with 5% CO2. 59M cells and HT1080 were cultured in Dulbecco's […] (DMEM) supplemented with 10% fetal bovine serum (FBS) and gentamycin (0.05 mg/ml), penicillin (0.06 mg/ml), and streptomycin (0.01 mg/ml). Caco-2 cell line was cultured in Minimum Essential Medium (MEM) supplemented with 20% FBS and the same antibiotics as above. The cells were supplied with fresh medium and subcultured three times each week.
# Washed platelet suspensions (2.5×10^11 platelets 1^−1) were prepared from blood an mixed with the anticoagulant sodium citrate (0.315% final concentration).
# The interactions between platelets and tumor cells were measured by light aggregometry (Alonso-Escolano et al., 2004; Jurasz et al., 2001b; Radomski et al., 1991). Briefly, washed platelet samples (2.5×10^8/ml) were placed in an eight channel PAP 8 aggregometer (BIO/DATA CORPORATION, Horsham, Pa., U.S.A.) and incubated for 10 min at 37° C., with stirring at 900 r.p.m., prior to the addition of aggregating agents. […] TCIPA was initiated by the addition of cancer cells, and monitored by Aggro-Link software for at least 30 min. For experiments using inhibitors, aggregation was initiated after 10 min preincubation with these compounds.
# To study the ability of the aspirin pro-drugs to inhibit TCIPA in WP cancer cell lines such as HT1080 cells (2×10^5/ml), CaCo2 cells (1.5×10^3/ml) or 59M cells (1×10^3/ml) were used in the presence or absence of aspirin nicotinate (ST0702), ISAS, orthonitrate and metanitrate at 300 and 500 μM. Platelet aggregation was initiated in washed platelets (WP) using HT1080 cells (2×10^5/ml), CaCo2 cells (1.5×10^3/ml) or 59M cells (1×10^3/ml). In addition, regular aspirin (300 and 500 uM) was used as control. Results were expressed in percent changes in maximal light transmission, with 100% representing light transmission of platelet medium alone. ST0702 is hydrolyzed by plasma esterases along two pathways liberating both aspirin and 5-nicotinate salicylate (ST0702 salicylate)(metabolite). The latter is further processed to isosorbide-5-nicotinate and eventually to nicotinic acid. The orthonitrate and metanitrate compounds liberate aspirin and nitric oxide (NO). ISAS meanwhile is hydrolysed to aspirin and salicylic acid. Aspirin (300 and 500 μM) was used in control experiments. Results were expressed in percent changes in maximal light transmission, with 100% representing light transmission of platelet medium alone. Further experiments were performed with ST0702 salicylate (500 μM).
# TCIPA = conditions: at up to 3 mM
compound,measurement,setting,value
CC(=O)Oc1ccccc1C(=O)Oc1cccc(CO[N+](=O)[O-])c1 [NCX-4016],inhibition of platelet aggregation in WP,platelets; NO and cGMP independent,inhibits platelet aggregation
same,inhibition of platelet aggregation in PRP,platelets,does not inhibit platelet aggregation
"CC(=O)Oc1ccccc1C(=O)OC1COC2C(OC(=O)c3ccccc3O)COC12 (stereo not shown) [ST0701, isosorbide-2-aspirinate-5-salicylate]",activation of GPIIb/IIIa in PRP,GPIIb/IIIa,significantly suppressed
same,inhibition of aggregation at 2 min preincubation,[1],40%
same,preincubation time at which inhibition is maximal,[1],5 min
same,"inhibition of ADP (10 μM) induced aggregation in PRP, comparison in words","[2]; ADP 10 μM, PRP",more efficacious than aspirin
same,effect of ODQ pretreatment on inhibition of ADP induced aggregation,"[2]; ODQ 10 μM, compounds 100 μM, ADP 10 μM, PRP",increased the inhibition
same,59M-mediated increase in platelet surface P-selectin,P-selectin [3],failed to prevent
same,inhibitory actions in WP after addition of human BuChE purified from plasma,"washed platelets (WP); BuChE 3 U/ml, collagen 5 μg/ml",rescued
same,inhibition of collagen induced aggregation in WP,"washed platelets (WP); at 500 μM, collagen 5 μg/ml",50%
same,IC50,"washed platelets (WP); inhibition of platelet aggregation in response to collagen (5 (unit uncertain)), washed platelets",200 µM
same,inhibition of TCIPA induced by 59M,59M cells [4],able to inhibit; also recorded: inhibited
same,translocation of P-selectin in PRP,P-selectin [5]; PRP,significantly suppressed
same,translocation of P-selectin in WP,P-selectin [5]; WP,not in WP
"O=C(O[C@@H]1CO[C@H]2[C@@H]1OC[C@@H]2OC(=O)c1ccccc1O)c1cccnc1 [ST0702 salicylate, isosorbide-2-salicylate-5-nicotinate]",inhibition of TCIPA under flow conditions (platelet-tumour cell disruption),59M cells [6],did not inhibit TCIPA under flow conditions
same,inhibition of ADP-induced aggregation in PRP,"[2]; 500 μM, ADP 10 μM",inhibited ADP-induced aggregation
same,inhibition of ADP-induced aggregation in PRP in the presence of eserine,"[2]; 500 μM, eserine 10 μM",became significant
same,inhibition of collagen-induced platelet aggregation,washed platelet samples,did not inhibit collagen-induced platelet aggregation
same,half life in-vitro,[7],very short
same,"inhibition of TCIPA in response to HT1080, no flow",HT1080 cells,inhibit TCIPA
O=C(OC1COC2C(O)COC12)c1cccnc1 (stereo not shown) [isosorbide-5-nicotinate],inhibition of TCIPA,TCIPA,did not inhibit TCIPA
"O=C(O)c1cccnc1 [nicotinic acid, reference compound]",inhibition of TCIPA,TCIPA,did not inhibit TCIPA

# Source: patent US9670223B2, “Compounds with super-aspirin effects” (SOLVOTRIN THERAPEUTICS LTD., priority 2011, dated 2017)
